Laboratory results published in PubChem BioAssay (NCI).
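These data come from cells grown in 96-well plates and exposed to compound for 48 hours at five concentrations. GI50 is the concentration that inhibits growth by half. At the TGI there is no net growth.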

What was measured:
Experiment in all cases: NCI anticancer screen, dose series, 48 h; in the data active = GI50 below about 0.43 µM; inactive = the rest
PC-3 prostate = tested on: PC-3 prostate
MALME-3M melanoma = tested on: MALME-3M melanoma
SF-268 CNS = tested on: SF-268 CNS
HCT-116 colon = tested on: HCT-116 colon
KM12 colon = tested on: KM12 colon
NCI-H226 lung = tested on: NCI-H226 lung
SK-MEL-2 melanoma = tested on: SK-MEL-2 melanoma
NCI-H460 lung = tested on: NCI-H460 lung
UO-31 renal = tested on: UO-31 renal
HL-60(TB) leukemia = tested on: HL-60(TB) leukemia

CN1COCc2cc3cc4c(cc3nc21)OCCO4
> 100 µM: TGI (PC-3 prostate) | TGI (MALME-3M melanoma) | TGI (SF-268 CNS) | TGI (HCT-116 colon) | TGI (KM12 colon) | TGI (NCI-H226 lung) | TGI (SK-MEL-2 melanoma) | TGI (NCI-H460 lung)

CCN1C(=O)N(CC)C2Nn3c(s/c(=C4\C(=O)N(C)c5ccccc54)c3=O)=NC21 (centres undefined)
inactive: GI50 (UO-31 renal) 2.82 µM | GI50 (PC-3 prostate) 3.52 µM | GI50 (MALME-3M melanoma) 3.9 µM | GI50 (SF-268 CNS) > 100 µM | GI50 (HCT-116 colon) 1.95 µM | GI50 (KM12 colon) 2.91 µM | GI50 (NCI-H226 lung) > 100 µM | GI50 (NCI-H460 lung) 3.35 µM
> 100 µM: TGI (UO-31 renal) | TGI (PC-3 prostate) | TGI (MALME-3M melanoma) | TGI (SF-268 CNS) | TGI (HCT-116 colon) | TGI (KM12 colon) | TGI (NCI-H226 lung) | TGI (NCI-H460 lung)

CCCCC#CS(=O)(=O)C(F)(F)F
62.9 µM: TGI (HL-60(TB) leukemia)
> 100 µM: TGI (UO-31 renal) | TGI (MALME-3M melanoma) | TGI (SF-268 CNS) | TGI (HCT-116 colon) | TGI (KM12 colon) | TGI (NCI-H226 lung) | TGI (SK-MEL-2 melanoma) | TGI (NCI-H460 lung)

CCOC(=O)C1(C(=O)OCC)CCCN1C(=O)[C@H](CNC(=O)OC(C)(C)C)NC(=O)OCc1ccccc1
> 100 µM: TGI (UO-31 renal) | TGI (PC-3 prostate) | TGI (SF-268 CNS) | TGI (HCT-116 colon) | TGI (KM12 colon) | TGI (NCI-H226 lung) | TGI (SK-MEL-2 melanoma) | TGI (NCI-H460 lung)

OCC(O)C(O)C(O)/C=N/Nc1nc(O)c(/C=C2\C=Nc3ccccc32)[nH]1 (centres undefined)
> 100 µM: TGI (MALME-3M melanoma) | TGI (SF-268 CNS) | TGI (HCT-116 colon) | TGI (KM12 colon) | TGI (NCI-H226 lung) | TGI (NCI-H460 lung) | TGI (HL-60(TB) leukemia)

O=c1n(Cc2ccccc2)c(=O)n2c(=O)n(Cc3ccccc3)c(=O)n12
> 100 µM: TGI (UO-31 renal) | TGI (MALME-3M melanoma) | TGI (SF-268 CNS) | TGI (HCT-116 colon) | TGI (KM12 colon) | TGI (NCI-H226 lung) | TGI (NCI-H460 lung) | TGI (HL-60(TB) leukemia)

CCOC(=O)C(C)c1nc2c(Cl)c3ncccc3cc2[nH]c1=O (centres undefined)
> 100 µM: TGI (UO-31 renal) | TGI (PC-3 prostate) | TGI (MALME-3M melanoma) | TGI (SF-268 CNS) | TGI (HCT-116 colon) | TGI (KM12 colon) | TGI (NCI-H226 lung) | TGI (SK-MEL-2 melanoma)

COC(=O)[C@H](C)NC(=O)[C@H](CSC)N1C(=O)N[C@@H](C(C)C)C1=O
> 100 µM: TGI (UO-31 renal) | TGI (PC-3 prostate) | TGI (MALME-3M melanoma) | TGI (HCT-116 colon) | TGI (KM12 colon) | TGI (NCI-H226 lung) | TGI (SK-MEL-2 melanoma) | TGI (NCI-H460 lung)

COc1ccc(N=NC(=Nc2ccc(F)cc2)c2ccc(N(CCC#N)CCC#N)cc2)cc1
> 100 µM: TGI (UO-31 renal) | TGI (SF-268 CNS) | TGI (HCT-116 colon) | TGI (NCI-H226 lung)
58.9 µM: TGI (PC-3 prostate)
44.9 µM: TGI (KM12 colon)
52 µM: TGI (NCI-H460 lung)
